Test: Concentration required to achieve 50% protection of MT-4 cell from the HIV-1 induced cytopathogenicity was determined by the MTT method

| SMILES | EC50 [µM] |
| --- | --- |
| O=C(c1ccccc1)N(C(=S)OCc1ccco1)c1ccccc1 [Benzoyl-phenyl-thiocarbamic acid O-furan-2-ylmethyl ester] | > 38.3 |
| O=C(c1ccccc1)N(C(=S)OCCc1ccccc1)c1ccccc1 [Benzoyl-phenyl-thiocarbamic acid O-phenethyl ester] | 4.2 |
| S=C(NCCc1ccccn1)Nc1ccc(Br)cn1 [N-(2-(2-Pyridylethyl))-N -(2-(5-bromopyridyl))thiourea] | 0.02 |
| O=C1c2ccccc2C(=O)N1CCOC(=S)N(C(=O)c1ccc(Cl)cc1)c1ccc(Cl)cc1 [O-2-(1,3-dioxoisoindolin-2-yl)ethyl 4-chlorobenzoyl(4-chlorophenyl)carbamothioate] | 0.025 |
| O=C1c2ccccc2C(=O)N1CCOC(=S)N(C(=O)c1ccco1)c1ccc(Cl)cc1 [O-2-(1,3-dioxoisoindolin-2-yl)ethyl 4-chlorophenyl(furan-2-carbonyl)carbamothioate] | 0.007 |
| O=C1c2ccccc2C(=O)N1CCOC(=S)N(C(=O)c1ccccc1)c1ccc(Cl)cc1 [O-2-(1,3-dioxoisoindolin-2-yl)ethyl benzoyl(4-chlorophenyl)carbamothioate] | 0.1 |
| CC(COc1ccccc1)OC(=S)N(C(=O)Oc1ccccc1)c1ccccc1 (centres undefined) [O-(1-methyl-2-phenoxyethyl) O-phenyl phenylimidothiodicarbonate] | > 200 |
| CCCOC(=O)N(C(=S)OC(C)COc1ccccc1)c1ccccc1 (centres undefined) [O-(1-methyl-2-phenoxyethyl) O-propyl phenylimidothiodicarbonate] | 131 |
| CCCCOC(=O)N(C(=S)OC(C)COc1ccccc1)c1ccccc1 (centres undefined) [O-butyl O-(1-methyl-2-phenoxyethyl) phenylimidothiodicarbonate] | 47 |
| COc1cc(C(=O)N(C(=S)OCCOc2ccccc2)c2ccccc2)cc(OC)c1OC [Phenyl-(3,4,5-trimethoxy-benzoyl)-thiocarbamic acid O-(2-phenoxy-ethyl) ester] | 9.6 |
| O=C(/C=C/c1ccccc1)N(C(=S)OCCOc1ccccc1)c1ccccc1 [Phenyl-(3-phenyl-acryloyl)-thiocarbamic acid O-(2-phenoxy-ethyl) ester] | 7.7 |
| O=C(/C=C/c1ccccc1)N(C(=S)OCCc1ccccc1)c1ccccc1 [Phenyl-(3-phenyl-acryloyl)-thiocarbamic acid O-phenethyl ester] | 4.5 |
| CC(COc1ccccc1)OC(=S)N(C(=O)c1cccs1)c1ccccc1 (centres undefined) [Phenyl-(thiophene-2-carbonyl)-thiocarbamic acid O-(1-methyl-2-phenoxy-ethyl) ester] | 2 |
| O=C(c1cccs1)N(C(=S)OCCOc1ccccc1)c1ccccc1 [Phenyl-(thiophene-2-carbonyl)-thiocarbamic acid O-(2-phenoxy-ethyl) ester] | 8.6 |
